Measurements taken from patent US4521538A (Medosan Industrie Biochimiche Riunite S.p.A., priority 1982, dated 1985).
Read-outs that look alike come from different tables or passages of the source.

Tests used:
[1] = Antiinflammatory activity, carrageenin-induced oedema test; assay type: in vivo, rats
Description: This effect was evaluated by means of an experimental model reproducing acute inflammation in rats: for this purpose the carrageenin-induced oedema test was employed following the method described by C. A. Winter (J. Pharmac. Exp. […] Wong, J. F. Gardocki and T. P. Pruss, J. Pharmac. Exp. Ther. 185 (1): 127, 1973). Table I lists the tested compounds, the concentration thereof, routes of administration and relative percentage oedema inhibitions; the data are commented upon at the end of the Tables.

[2] = test system: healthy animals; test: General observation of toxic effects in animals at the doses used
From the text: (§1) The composition that had been administered via the oral and/or parenteral route, was in suspension of 0.5% carboxymethylcellulose in neutral pH physiological saline solution.

[3] = in vivo; details: mouse
[4] = Analgesic activity, phenylquinone-induced writhing test; assay type: in vivo
Description: The inhibiting effect on the abdominal contractions induced by phenyl-p-quinone was calculated by the following formula: [formula]
Table II lists the doses, routes of administration and their efficacy expressed as percentage of protection.

[5] = Solubility; assay type: physicochemical
[6] = Mucolytic activity in vitro, consistency of human expectoration
Description: The experiment was carried out "in vitro" according to the method of R. S. Hirsch (Bull. […] Table IV lists the percentage decrease of the expectoration consistency provoked by the compound of this invention in comparison with dithiothreitol and acetylcysteine which are known mucolytic agents.

[7] = assay type: in vivo, male Wistar rats; details: for % incidence / 10 / gastric damage index / mean No. of lesions / mean severity: four days; for mean severity: scale 0 (no lesion) to 5 (perforations)
Description: Male Wistar rats weighing 180 g were randomized into groups of 10. Three doses of each compound were administered. One group received the vehicle alone (10 ml/kg b.w.). Each dose was given orally for four days consecutively and the rats were sacrificed on the fifth day for necropsy. The ulcerogenic effect was evaluated by the following scale:
(1) each haemorrhagic point at least 1 mm in diameter was scored as 1 lesion,
(2) haemorrhagic points less than 1 mm in diameter were scored in the following manner:
(c) 20 to 29=three lesions
(2) gastric mucosal irritation without haemorrhage: 1
(3) haemorrhagic points less than 1 mm in diameter: 2
(4) haemorrhagic points between 1 and 3 mm in diameter: 3
(5) haemorrhagic points larger than 3 mm in diameter: 4
By means of this scale it was possible to obtain the gastric damage index: [formula]

[8] = in vivo; details: rat
[9] = Antipyretic activity, yeast-induced hyperthermia; assay type: in vivo, albino male Wistar rats
From the text: as §1

[10] = Antitussive activity (method of Y. Kase); assay type: in vivo, albino male Guinea-pigs
Description: The antitussive effect on albino male Guinea-pigs weighing 300 g was evaluated using the method described by Y. Kase (Selected Pharmacological Testing Methods, p. 363, Marcel Dekker Inc., New York, 1968).

COc1ccccc1OC(=O)Cc1ccc(C(=O)c2ccc(C)cc2)n1C [1-methyl-5-p-toluoylpyrrole-2-acetic acid guaiacyl ester]
Oedema % inhibition ([1]; 25 mg/kg i.p., 2 h): 33.5% | Oedema % inhibition ([1]; 25 mg/kg i.p., 4 h): 30.0% | Oedema % inhibition ([1]; 25 mg/kg i.p., 6 h): 25.0% | Oedema % inhibition ([1]; 25 mg/kg i.p., 24 h): 7.0% | Oedema % inhibition ([1]; 25 mg/kg per os, 2 h): 27.0% | Oedema % inhibition ([1]; 25 mg/kg per os, 4 h): 29.0% | Oedema % inhibition ([1]; 25 mg/kg per os, 6 h): 28.0% | Oedema % inhibition ([1]; 25 mg/kg per os, 24 h): 3.2% | Oedema % inhibition ([1]; 50 mg/kg i.p., 2 h): 55.0% | Oedema % inhibition ([1]; 50 mg/kg i.p., 4 h): 51.6% | Oedema % inhibition ([1]; 50 mg/kg i.p., 6 h): 49.0% | Oedema % inhibition ([1]; 50 mg/kg i.p., 24 h): 9.2% | Oedema % inhibition ([1]; 50 mg/kg per os, 2 h): 49.0% | Oedema % inhibition ([1]; 50 mg/kg per os, 4 h): 53.0% | Oedema % inhibition ([1]; 50 mg/kg per os, 6 h): 51.0% | Oedema % inhibition ([1]; 50 mg/kg per os, 24 h): 5.3% | Oedema % inhibition ([1]; 100 mg/kg i.p., 2 h): 80.0% | Oedema % inhibition ([1]; 100 mg/kg i.p., 4 h): 78.0% | Oedema % inhibition ([1]; 100 mg/kg i.p., 6 h): 70.0% | Oedema % inhibition ([1]; 100 mg/kg i.p., 24 h): 9.5% | Oedema % inhibition ([1]; 100 mg/kg per os, 2 h): 71.6% | Oedema % inhibition ([1]; 100 mg/kg per os, 4 h): 77.8% | Oedema % inhibition ([1]; 100 mg/kg per os, 6 h): 77.0% | Oedema % inhibition ([1]; 100 mg/kg per os, 24 h): 7.2% | action against acute inflammation in words ([1]; oral and/or parenteral): inhibiting action against acute inflammation | death ([2]; healthy animals, doses and routes used in the experiments, long- or short-term treatments): did not provoke death | apparent signs of toxic effects ([2]; in vivo): nor apparent signs of toxic effects | significant toxic effects ([2]; in vivo): did not provoke significant toxic effects | therapeutical index ([2]; in vivo): high therapeutical index | LD50 ([3]; ip): 1200 mg/kg | LD50 ([3]; po): > 1500 mg/kg | % protection ([4]; 5 mg/kg i.p.): 30.0% | % protection ([4]; 5 mg/kg per os): 30.0% | % protection ([4]; 10 mg/kg i.p.): 62.5% | % protection ([4]; 10 mg/kg per os): 58.6% | % protection ([4]; 20 mg/kg i.p.): 78.0% | % protection ([4]; 20 mg/kg per os): 79.4% | analgesic action in words ([4]; oral and/or parenteral): marked analgesic action | Solubility [5]: soluble in the usual organic solvents | % decrease of expectoration consistency ([6]; 1.0 M (9%), 12 experiments): 52% | mucolytic activity in words ([6]; described as in vivo tests): good mucolytic and antitussive activity | % incidence / 10 ([7]; 50 mg/kg orally): 7 | gastric damage index ([7]; 50 mg/kg orally): 9 | mean No. of lesions ([7]; 50 mg/kg orally): 1 | mean severity ([7]; 50 mg/kg orally): 1 | % incidence / 10 ([7]; 100 mg/kg orally): 8 | gastric damage index ([7]; 100 mg/kg orally): 11 | mean No. of lesions ([7]; 100 mg/kg orally): 1 | mean severity ([7]; 100 mg/kg orally): 2 | % incidence / 10 ([7]; 200 mg/kg orally): 8 | gastric damage index ([7]; 200 mg/kg orally): 12 | mean No. of lesions ([7]; 200 mg/kg orally): 2 | mean severity ([7]; 200 mg/kg orally): 2 | ulcerogenic effect in words ([7]; number of gastric lesions and their severity (Table VI)): moderate | gastrointestinal tolerability ([7]; rat, in vivo): perfectly tolerated by the gastrointestinal tract | LD50 ([8]; ip): 1180 mg/kg | LD50 ([8]; po): > 1500 mg/kg | % temperature decrease ([9]; 50 mg/kg i.p., 1 h): 18.0% | % temperature decrease ([9]; 50 mg/kg i.p., 2 h): 26.0% | % temperature decrease ([9]; 50 mg/kg i.p., 3 h): 39.0% | % temperature decrease ([9]; 50 mg/kg per os, 1 h): 16.0% | % temperature decrease ([9]; 50 mg/kg per os, 2 h): 20.0% | % temperature decrease ([9]; 50 mg/kg per os, 3 h): 33.0% | % temperature decrease ([9]; 75 mg/kg i.p., 1 h): 30.0% | % temperature decrease ([9]; 75 mg/kg i.p., 2 h): 35.0% | % temperature decrease ([9]; 75 mg/kg i.p., 3 h): 56.0% | % temperature decrease ([9]; 75 mg/kg per os, 1 h): 18.0% | % temperature decrease ([9]; 75 mg/kg per os, 2 h): 27.0% | % temperature decrease ([9]; 75 mg/kg per os, 3 h): 49.0% | % temperature decrease ([9]; 100 mg/kg i.p., 1 h): 42.0% | % temperature decrease ([9]; 100 mg/kg i.p., 2 h): 49.0% | % temperature decrease ([9]; 100 mg/kg i.p., 3 h): 58.0% | % temperature decrease ([9]; 100 mg/kg per os, 1 h): 29.0% | % temperature decrease ([9]; 100 mg/kg per os, 2 h): 35.0% | % temperature decrease ([9]; 100 mg/kg per os, 3 h): 50.0% | antithermic activity in words ([9]; oral and/or parenteral): considerable antithermic activity | % inhibition, amplitude of coughs ([10]; 50 mg/kg i.p.): 18% | % inhibition, frequency of coughs ([10]; 50 mg/kg i.p.): 26% | % inhibition, amplitude of coughs ([10]; 50 mg/kg per os): 16% | % inhibition, frequency of coughs ([10]; 50 mg/kg per os): 22% | % inhibition, amplitude of coughs ([10]; 75 mg/kg i.p.): 25% | % inhibition, frequency of coughs ([10]; 75 mg/kg i.p.): 50% | % inhibition, amplitude of coughs ([10]; 75 mg/kg per os): 19% | % inhibition, frequency of coughs ([10]; 75 mg/kg per os): 45% | % inhibition, amplitude of coughs ([10]; 100 mg/kg i.p.): 40% | % inhibition, frequency of coughs ([10]; 100 mg/kg i.p.): 55% | % inhibition, amplitude of coughs ([10]; 100 mg/kg per os): 38% | % inhibition, frequency of coughs ([10]; 100 mg/kg per os): 56% | antitussive activity in words ([10]; in vivo tests): good mucolytic and antitussive activity
